Results taken from ChEMBL document CHEMBL2046331, “Lead optimization of a sulfonylurea-based piperazine pyridazinone series of glucan synthase inhibitors” (Bioorg Med Chem Lett, 2012).
≈ marks a conversion by molar mass, not a printed value. Calls of active or inactive are those of the source. The rule behind the calls is not given here.

Key:
Beta-1,3-glucan synthase = target: T1, Beta-1,3-glucan synthase (Candida albicans, UniProt O13383); assay: Inhibition of glucan synthase in Candida albicans BWP17 membrane; format: cell membranes
T1 sequence (O13383 whole entry): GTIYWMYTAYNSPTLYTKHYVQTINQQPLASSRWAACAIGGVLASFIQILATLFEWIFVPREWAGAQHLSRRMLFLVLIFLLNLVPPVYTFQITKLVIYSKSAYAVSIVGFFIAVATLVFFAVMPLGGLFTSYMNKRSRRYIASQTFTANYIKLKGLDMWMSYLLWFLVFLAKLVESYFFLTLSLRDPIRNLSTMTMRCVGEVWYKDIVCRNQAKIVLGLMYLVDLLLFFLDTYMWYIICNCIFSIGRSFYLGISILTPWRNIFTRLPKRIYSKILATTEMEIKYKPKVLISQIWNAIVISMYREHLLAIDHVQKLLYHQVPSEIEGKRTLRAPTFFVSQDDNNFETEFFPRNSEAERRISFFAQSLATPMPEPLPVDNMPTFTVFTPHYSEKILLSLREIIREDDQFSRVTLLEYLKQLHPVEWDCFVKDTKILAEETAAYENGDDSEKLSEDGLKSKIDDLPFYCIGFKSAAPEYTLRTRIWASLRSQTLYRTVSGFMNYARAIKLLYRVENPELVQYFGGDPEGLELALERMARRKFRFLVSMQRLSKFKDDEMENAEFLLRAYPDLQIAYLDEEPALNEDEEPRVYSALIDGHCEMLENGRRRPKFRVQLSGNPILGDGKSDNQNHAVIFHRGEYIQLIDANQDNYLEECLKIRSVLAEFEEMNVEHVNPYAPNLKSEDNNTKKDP

Nakaseomyces glabratus = assay: Antifungal activity against Candida glabrata C624 by broth dilution method; format: functional; details: read-out: MIC100
Candida albicans [1] = assay: Antifungal activity against Candida albicans C693 by broth dilution method; format: functional; details: read-out: MIC100
[2] = AUC (0 to 6 hrs) in rat at 10 mg/kg, po; format: ADME, organism-based; design: time < 6 hr, dose 10 mg/kg, route oral; details: plasma
Candida albicans [3] = assay: Antifungal activity against Candida albicans C43 by broth dilution method; format: functional; details: read-out: MIC100
Candida albicans [4] = assay: Antifungal activity against Candida albicans C375 by broth dilution method; format: functional; details: read-out: MIC100
Aspergillus fumigatus = assay: Antifungal activity against Aspergillus fumigatus ND158 by broth dilution method; format: functional; details: read-out: MEC
[5] = Clearance in human hepatocytes assessed per million cells; format: ADME, cell-based, Hepatocyte; details: read-out: CLH
Candida albicans [6] = assay: Antifungal activity against Candida albicans C43 by broth dilution method in presence of 25% human serum; format: functional; details: read-out: MIC100
[7] = Clearance in rat hepatocytes assessed per million cells; format: ADME, cell-based, Hepatocyte; details: read-out: CLH
Candida albicans [8] = assay: Antifungal activity against Candida albicans C43 systemically infected in mouse assessed as reduction in fungal burden in kidney at 100 mg/kg, ip administered daily for 4 days relative to vehicle treated control; format: functional, organism-based; design: dose 100 mg/kg
Candida albicans [9] = assay: Antifungal activity against Candida albicans C43 systemically infected in mouse assessed as reduction in fungal burden in kidney at 100 mg/kg, ip administered daily for 4 days relative to caspofungin; format: functional, organism-based; design: dose 100 mg/kg

CC1(CO/C(C(=O)Nc2cccc(Cl)c2)=C(/C=N)N2CCN(S(=O)(=O)NCc3ccncc3)CC2)CC1
IC50 (Beta-1,3-glucan synthase): 91.4 nM
MIC (Nakaseomyces glabratus): 2.08 µg/mL (≈ 3.8 µM)
MIC (Candida albicans [1]): 0.52 µg/mL (≈ 0.95 µM)

COc1ccc(CNS(=O)(=O)N2CCN(/C(C=N)=C(\OCC3(C)CC3)C(=O)Nc3cccc(Cl)c3)CC2)cc1OC
IC50 (Beta-1,3-glucan synthase): 297 nM
MIC (Nakaseomyces glabratus): 0.06 µg/mL (≈ 0.099 µM)
MIC (Candida albicans [1]): 0.26 µg/mL (≈ 0.429 µM)

Cc1ccc(CNS(=O)(=O)N2CCN(/C(C=N)=C(\OC3CCC(F)C3)C(=O)Nc3cc(F)cc(F)c3)CC2)cc1N (mixture of isomers)
AUC(0-t) at 6 h [2]: 2580 ng·h/mL

Cc1ccc(CNS(=O)(=O)N2CCN(/C(C=N)=C(\OCC3(C)CC3)C(=O)Nc3cccc(Cl)c3)CC2)cc1N
IC50 (Beta-1,3-glucan synthase): 125 nM
MIC (Nakaseomyces glabratus): 0.26 µg/mL (≈ 0.452 µM)
MIC (Candida albicans [1]): 0.26 µg/mL (≈ 0.452 µM)
MIC (Candida albicans [3]): 0.52 µg/mL (≈ 0.904 µM)
MIC (Candida albicans [4]): 2.08 µg/mL (≈ 3.62 µM)
minimal effective concentration (Aspergillus fumigatus): 1.04 µg/mL
hepatocyte CLint [5]: 19.6 µL/min/1e6 cells
AUC(0-t) at 6 h [2]: 1410 ng·h/mL

COc1ccc(CNS(=O)(=O)N2CCN(/C(C=N)=C(\OCC3(C)CC3)C(=O)Nc3cccc(Cl)c3)CC2)cc1N
IC50 (Beta-1,3-glucan synthase): 237 nM
MIC (Nakaseomyces glabratus): 0.52 µg/mL (≈ 0.88 µM)
MIC (Candida albicans [1]): 0.26 µg/mL (≈ 0.44 µM)
MIC (Candida albicans [3]): 0.52 µg/mL (≈ 0.88 µM)
MIC (Candida albicans [6]): 2.08 µg/mL
MIC (Candida albicans [4]): 4.17 µg/mL (≈ 7.05 µM)
minimal effective concentration (Aspergillus fumigatus): 4.17 µg/mL
hepatocyte CLint [7]: 15 µL/min/1e6 cells
AUC(0-t) at 6 h [2]: 440 ng·h/mL

Cc1cc(CNS(=O)(=O)N2CCN(/C(C=N)=C(\OCC3(C)CC3)C(=O)Nc3cccc(Cl)c3)CC2)ccc1N
IC50 (Beta-1,3-glucan synthase): 108 nM
MIC (Nakaseomyces glabratus): 0.52 µg/mL (≈ 0.904 µM)
MIC (Candida albicans [1]): 0.26 µg/mL (≈ 0.452 µM)
MIC (Candida albicans [3]): 0.52 µg/mL (≈ 0.904 µM)
MIC (Candida albicans [4]): 2.08 µg/mL (≈ 3.62 µM)
minimal effective concentration (Aspergillus fumigatus): 2.08 µg/mL
hepatocyte CLint [5]: 13.4 µL/min/1e6 cells
AUC(0-t) at 6 h [2]: 900 ng·h/mL

N=C/C(=C(/OC1CCCC1)C(=O)Nc1cccc(Cl)c1)N1CCN(S(=O)(=O)N2CCOCC2)CC1
IC50 (Beta-1,3-glucan synthase): 2870 nM
MIC (Nakaseomyces glabratus): 0.39 µg/mL (≈ 0.741 µM)
MIC (Candida albicans [1]): 25 µg/mL (≈ 47.5 µM)

CC(C)NS(=O)(=O)N1CCN(/C(C=N)=C(\OC2CCCC2)C(=O)Nc2cccc(Cl)c2)CC1
IC50 (Beta-1,3-glucan synthase): 361 nM
MIC (Nakaseomyces glabratus): 0.03 µg/mL (≈ 0.0602 µM)
MIC (Candida albicans [1]): 0.52 µg/mL (≈ 1.04 µM)

COc1cc(CNS(=O)(=O)N2CCN(/C(C=N)=C(\OCC3(C)CC3)C(=O)Nc3cccc(Cl)c3)CC2)ccc1N
IC50 (Beta-1,3-glucan synthase): 157 nM
MIC (Nakaseomyces glabratus): 0.52 µg/mL (≈ 0.88 µM)
MIC (Candida albicans [1]): 0.52 µg/mL (≈ 0.88 µM)
MIC (Candida albicans [3]): 1.04 µg/mL (≈ 1.76 µM)
MIC (Candida albicans [6]): 4.17 µg/mL
MIC (Candida albicans [4]): 4.17 µg/mL (≈ 7.05 µM)
minimal effective concentration (Aspergillus fumigatus): 4.17 µg/mL
hepatocyte CLint [7]: 12.6 µL/min/1e6 cells
AUC(0-t) at 6 h [2]: 860 ng·h/mL
Activity (Candida albicans [8]): inactive
Activity (Candida albicans [9]): inactive

CC1(CO/C(C(=O)Nc2cccc(Cl)c2)=C(/C=N)N2CCN(S(=O)(=O)NCc3cccnc3)CC2)CC1
IC50 (Beta-1,3-glucan synthase): 201 nM
MIC (Nakaseomyces glabratus): 2.08 µg/mL (≈ 3.8 µM)
MIC (Candida albicans [1]): 1.04 µg/mL (≈ 1.9 µM)

CC1(CO/C(C(=O)Nc2cccc(Cl)c2)=C(/C=N)N2CCN(S(=O)(=O)NCc3ccnc(N)c3)CC2)CC1
IC50 (Beta-1,3-glucan synthase): 409 nM
MIC (Nakaseomyces glabratus): 2.08 µg/mL (≈ 3.7 µM)
MIC (Candida albicans [1]): 8.35 µg/mL (≈ 14.9 µM)
MIC (Candida albicans [3]): 16.7 µg/mL (≈ 29.7 µM)
MIC (Candida albicans [4]): > 33 µg/mL
minimal effective concentration (Aspergillus fumigatus): 16.7 µg/mL
AUC(0-t) at 6 h [2]: 50 ng·h/mL

CN(C)S(=O)(=O)N1CCN(/C(C=N)=C(\OC2CCCC2)C(=O)Nc2cccc(Cl)c2)CC1
IC50 (Beta-1,3-glucan synthase): 1900 nM
MIC (Nakaseomyces glabratus): 0.1 µg/mL (≈ 0.207 µM)
MIC (Candida albicans [1]): 6.25 µg/mL (≈ 12.9 µM)

CC1(CO/C(C(=O)Nc2cccc(Cl)c2)=C(/C=N)N2CCN(S(=O)(=O)NCc3ccc(N)c(F)c3)CC2)CC1
IC50 (Beta-1,3-glucan synthase): 111 nM
MIC (Nakaseomyces glabratus): 0.13 µg/mL (≈ 0.224 µM)
MIC (Candida albicans [1]): 0.06 µg/mL (≈ 0.104 µM)
MIC (Candida albicans [3]): 0.13 µg/mL (≈ 0.224 µM)
MIC (Candida albicans [6]): 1.04 µg/mL
MIC (Candida albicans [4]): 0.52 µg/mL (≈ 0.898 µM)
minimal effective concentration (Aspergillus fumigatus): 1.04 µg/mL
hepatocyte CLint [7]: 12.7 µL/min/1e6 cells

N=C/C(=C(/OC1CCCC1)C(=O)Nc1cccc(Cl)c1)N1CCN(S(=O)(=O)NCc2ccccc2)CC1
IC50 (Beta-1,3-glucan synthase): 87.9 nM
MIC (Nakaseomyces glabratus): < 0.02 µg/mL
MIC (Candida albicans [1]): 0.03 µg/mL (≈ 0.0549 µM)

N=C/C(=C(/OC1CCCC1)C(=O)Nc1cccc(Cl)c1)N1CCN(S(=O)(=O)Nc2ccccc2)CC1
IC50 (Beta-1,3-glucan synthase): 117 nM
MIC (Nakaseomyces glabratus): 0.16 µg/mL (≈ 0.301 µM)
MIC (Candida albicans [1]): > 25 µg/mL

CC(C)N(C)S(=O)(=O)N1CCN(/C(C=N)=C(\OC2CCCC2)C(=O)Nc2cccc(Cl)c2)CC1
IC50 (Beta-1,3-glucan synthase): 1450 nM
MIC (Nakaseomyces glabratus): 0.39 µg/mL (≈ 0.762 µM)
MIC (Candida albicans [1]): 10 µg/mL (≈ 19.5 µM)

CCN(CC)S(=O)(=O)N1CCN(/C(C=N)=C(\OC2CCCC2)C(=O)Nc2cccc(Cl)c2)CC1
IC50 (Beta-1,3-glucan synthase): 625 nM
MIC (Nakaseomyces glabratus): 0.2 µg/mL (≈ 0.391 µM)
MIC (Candida albicans [1]): 6.25 µg/mL (≈ 12.2 µM)

CC(NS(=O)(=O)N1CCN(/C(C=N)=C(\OCC2(C)CC2)C(=O)Nc2cccc(Cl)c2)CC1)c1cccc(N)c1 (stereo not drawn)
IC50 (Beta-1,3-glucan synthase): 522 nM
MIC (Nakaseomyces glabratus): 1.04 µg/mL (≈ 1.81 µM)
MIC (Candida albicans [1]): 1.04 µg/mL (≈ 1.81 µM)
MIC (Candida albicans [3]): 4.17 µg/mL (≈ 7.25 µM)
MIC (Candida albicans [4]): 8.35 µg/mL (≈ 14.5 µM)
minimal effective concentration (Aspergillus fumigatus): 16.7 µg/mL
AUC(0-t) at 6 h [2]: 1300 ng·h/mL

CC1(CO/C(C(=O)Nc2cccc(Cl)c2)=C(/C=N)N2CCN(S(=O)(=O)NCc3nc4ccccc4s3)CC2)CC1
IC50 (Beta-1,3-glucan synthase): 398 nM
MIC (Nakaseomyces glabratus): 0.26 µg/mL (≈ 0.431 µM)
MIC (Candida albicans [1]): 0.26 µg/mL (≈ 0.431 µM)

CC1(CO/C(C(=O)Nc2cccc(Cl)c2)=C(/C=N)N2CCN(S(=O)(=O)NCc3ccccc3)CC2)CC1
IC50 (Beta-1,3-glucan synthase): 5310 nM
MIC (Nakaseomyces glabratus): 2.08 µg/mL (≈ 3.81 µM)
MIC (Candida albicans [1]): > 33 µg/mL

COC(=O)c1ccc(CNS(=O)(=O)N2CCN(/C(C=N)=C(\OCC3(C)CC3)C(=O)Nc3cccc(Cl)c3)CC2)cc1
IC50 (Beta-1,3-glucan synthase): 530 nM
MIC (Nakaseomyces glabratus): 0.13 µg/mL (≈ 0.215 µM)
MIC (Candida albicans [1]): 0.52 µg/mL (≈ 0.861 µM)

CC1(CO/C(C(=O)Nc2cccc(Cl)c2)=C(/C=N)N2CCN(S(=O)(=O)NCc3ccc(F)c(N)c3)CC2)CC1
IC50 (Beta-1,3-glucan synthase): 297 nM
MIC (Nakaseomyces glabratus): 0.52 µg/mL (≈ 0.898 µM)
MIC (Candida albicans [1]): 0.52 µg/mL (≈ 0.898 µM)
MIC (Candida albicans [3]): 2.08 µg/mL (≈ 3.59 µM)
MIC (Candida albicans [4]): 4.17 µg/mL (≈ 7.2 µM)
minimal effective concentration (Aspergillus fumigatus): 2.08 µg/mL

CC1(CO/C(C(=O)Nc2cccc(Cl)c2)=C(/C=N)N2CCN(S(=O)(=O)NCc3nc4cc(Cl)ccc4o3)CC2)CC1
IC50 (Beta-1,3-glucan synthase): 1300 nM
MIC (Nakaseomyces glabratus): 0.52 µg/mL (≈ 0.837 µM)
MIC (Candida albicans [1]): 2.08 µg/mL (≈ 3.35 µM)

N=C/C(=C(/OC1CCCC1)C(=O)Nc1cccc(Cl)c1)N1CCN(S(N)(=O)=O)CC1
IC50 (Beta-1,3-glucan synthase): 42100 nM
MIC (Nakaseomyces glabratus): 16.7 µg/mL (≈ 36.6 µM)
MIC (Candida albicans [1]): > 33 µg/mL

Cc1nc2ccc(CNS(=O)(=O)N3CCN(/C(C=N)=C(\OCC4(C)CC4)C(=O)Nc4cccc(Cl)c4)CC3)cc2s1
IC50 (Beta-1,3-glucan synthase): 97.2 nM
MIC (Nakaseomyces glabratus): 0.06 µg/mL (≈ 0.0972 µM)
MIC (Candida albicans [1]): 0.52 µg/mL (≈ 0.843 µM)
